Measured values: the supplement of paper PMC8612539
In brackets after ≈: the same amount, converted by molar mass.

Tested on: Pasteurella multocida
Test: minimum inhibitory concentration (MIC)
Description: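 Broth microdilution MIC (Sensititre BOPO7F bovine plate, CLSI methods) of 19 antimicrobials against field isolates of P. multocida, M. haemolytica, H. somni (deep nasopharyngeal swabs) and E. coli, Enterococcus spp. (rectal swabs) from weaned dairy heifers. Incubation 16-24 h at 35 C. MIC is the lowest concentration preventing visible growth. Values with <= or > lie at the tested range limits. Trimethoprim-sulfamethoxazole is given as the trimethoprim component of a 1:19 mixture.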

CN1C[C@@H]2C[C@H]1CN2c1cc2c(cc1F)c(=O)c(C(=O)O)cn2C1CC1 [Danofloxacin]
Conditions	minimum inhibitory concentration [µg/mL]
isolate (source animal id): 10	> 1
isolate (source animal id): 11	1 (≈ 2.8 µM)
isolate (source animal id): 12	> 1
isolate (source animal id): 19	> 1
isolate (source animal id): 23	1 (≈ 2.8 µM)
isolate (source animal id): 26	> 1
isolate (source animal id): 98	> 1
isolate (source animal id): 104	1 (≈ 2.8 µM)
isolate (source animal id): 115	≤ 0.12
isolate (source animal id): 117	> 1
isolate (source animal id): 118	> 1
isolate (source animal id): 121	≤ 0.12
isolate (source animal id): 124	> 1
isolate (source animal id): 125	> 1
isolate (source animal id): 128	≤ 0.12
isolate (source animal id): 131	> 1
isolate (source animal id): 135	> 1
isolate (source animal id): 136	≤ 0.12
isolate (source animal id): 140	> 1
isolate (source animal id): 144	1 (≈ 2.8 µM)
isolate (source animal id): 146	1 (≈ 2.8 µM)
isolate (source animal id): 150	≤ 0.12
isolate (source animal id): 151	≤ 0.12
isolate (source animal id): 153	1 (≈ 2.8 µM)
isolate (source animal id): 155	> 1
isolate (source animal id): 157	> 1
isolate (source animal id): 160	≤ 0.12
isolate (source animal id): 164	≤ 0.12
isolate (source animal id): 165	≤ 0.12
isolate (source animal id): 167	≤ 0.12
isolate (source animal id): 168	> 1
isolate (source animal id): 169	≤ 0.12
isolate (source animal id): 170	≤ 0.12
isolate (source animal id): 171	≤ 0.12
isolate (source animal id): 172	≤ 0.12
isolate (source animal id): 173	> 1
isolate (source animal id): 174	≤ 0.12
isolate (source animal id): 175	≤ 0.12
isolate (source animal id): 176	≤ 0.12
isolate (source animal id): 177	≤ 0.12
isolate (source animal id): 178	≤ 0.12
isolate (source animal id): 179	≤ 0.12
isolate (source animal id): 182	≤ 0.12
isolate (source animal id): 192	≤ 0.12
isolate (source animal id): 193	≤ 0.12
isolate (source animal id): 195	≤ 0.12
isolate (source animal id): 196	≤ 0.12
isolate (source animal id): 197	≤ 0.12
isolate (source animal id): 198	> 1
isolate (source animal id): 199	≤ 0.12
isolate (source animal id): 200	≤ 0.12
isolate (source animal id): 201	≤ 0.12
isolate (source animal id): 203	≤ 0.12
isolate (source animal id): 204	≤ 0.12
isolate (source animal id): 205	> 1
isolate (source animal id): 206	≤ 0.12
isolate (source animal id): 207	≤ 0.12
isolate (source animal id): 208	≤ 0.12
isolate (source animal id): 209	≤ 0.12
isolate (source animal id): 210	> 1
isolate (source animal id): 213	≤ 0.12
isolate (source animal id): 216	≤ 0.12
isolate (source animal id): 223	> 1
isolate (source animal id): 227	≤ 0.12
isolate (source animal id): 229	> 1
isolate (source animal id): 233	> 1
isolate (source animal id): 234	> 1
isolate (source animal id): 237	> 1
isolate (source animal id): 241	> 1
isolate (source animal id): 245	> 1
isolate (source animal id): 247	1 (≈ 2.8 µM)
isolate (source animal id): 250	> 1
isolate (source animal id): 254	> 1
isolate (source animal id): 255	> 1
isolate (source animal id): 258	≤ 0.12
isolate (source animal id): 261	> 1
isolate (source animal id): 262	> 1
